Laboratory results: ChEMBL document CHEMBL4725255, “Broad assessment of bioactivity of a collection of spiroindane pyrrolidines through "cell painting"” (Bioorg Med Chem, 2020)
Activity calls are given as the source filed them. The rule behind the calls is not given here.

Tested on: U2OS
Assay: Cytotoxicity against human U-2 OS cells assessed as change in cell morphology incubated for 24 hrs at […] measured after various levels of staining by micro XL microscopic-imaging analysis
Type: functional, cell-based

**Q.** For COc1ccc(-c2ccc3c(c2)C2(CCCN2)C(C#N)C3)cc1 (stereo not given), which Activity is on record?
**A.** inactive

**Q.** With N#CC1Cc2ccccc2C12CCCN2 (stereo in doubt; 1) as the compound, how does the Activity read?
**A.** Active

**Q.** For N#CC1Cc2ccccc2C12CCCN2 (stereo in doubt; 14), which Activity is on record?
**A.** inactive

**Q.** Which Activity does the source give for COCCOC(=O)N1CCCC12CCc1ccc(C#CCO)cc12 (stereo not given) here?
**A.** Active

**Q.** How did the Activity turn out when N#C[C@@H]1C[C@H]2[C@H]3[C@@H]1C=C[C@]32C1=NCCC1 was run?
**A.** Active
